Experimental data published in the supplement of paper PMC7017272.
± gives the standard deviation of the averaged measurements.

Experiments:
[1] = tested on: UT-SCC-81; experiment: drug sensitivity score (DSS); higher = more sensitive; extreme values may be limits of the assay; conditions: treatment time: 3 days
Procedure, shortened: (§1)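 The FIMM pipeline was used to fit percent-inhibition dose–response curves, giving IC50, maximal inhibition and drug sensitivity score. Input data were CellTiter-Glo 2.0 luminescence readings, normalised to vehicle (0.1% DMSO) and cell-killing control wells, from HPV-negative HNSCC cell lines seeded at 500 cells/well in 384-well plates. Cells sat on plastic, on Matrigel or Myogel coatings (500 µg/mL), or within Matrigel or Myogel plus rat collagen I, and received compounds at five 10-fold concentrations for 3 days.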

[2] = tested on: UT-SCC-42B; experiment: as above; conditions: treatment time: 3 days
Procedure, shortened: as §1

[3] = tested on: UT-SCC-8; experiment: as above; conditions: treatment time: 3 days
Procedure, shortened: as §1

[4] = tested on: UT-SCC-24B; experiment: as above; conditions: treatment time: 3 days
Procedure, shortened: as §1

[5] = tested on: UT-SCC-44; experiment: as above; conditions: treatment time: 3 days
Procedure, shortened: as §1

[6] = tested on: UT-SCC-73; experiment: as above; conditions: treatment time: 3 days
Procedure, shortened: as §1

[7] = tested on: UT-SCC-42A; experiment: as above; conditions: treatment time: 3 days
Procedure, shortened: as §1

[8] = tested on: UT-SCC-40; experiment: as above; conditions: treatment time: 3 days
Procedure, shortened: as §1

[9] = tested on: UT-SCC-14; experiment: as above; conditions: treatment time: 3 days
Procedure, shortened: as §1

[10] = tested on: UT-SCC-28; experiment: as above; conditions: treatment time: 3 days
Procedure, shortened: as §1

[11] = tested on: UT-SCC-106A; experiment: as above; conditions: treatment time: 3 days
Procedure, shortened: as §1

[12] = tested on: UT-SCC-81; experiment: relative IC50 (midpoint of the fitted curve; maximal inhibition may be below 50%); higher = less potent; conditions: treatment time: 3 days
Procedure, shortened: as §1

[13] = tested on: UT-SCC-42B; experiment: as above; conditions: culture condition: on top of Myogel; treatment time: 3 days
Procedure, shortened: as §1

[14] = tested on: UT-SCC-44; experiment: as above; conditions: treatment time: 3 days
Procedure, shortened: as §1

[15] = tested on: UT-SCC-73; experiment: as above; conditions: treatment time: 3 days
Procedure, shortened: as §1

[16] = tested on: UT-SCC-42A; experiment: as above; conditions: treatment time: 3 days
Procedure, shortened: as §1

[17] = tested on: UT-SCC-14; experiment: as above; conditions: treatment time: 3 days
Procedure, shortened: as §1

[18] = tested on: UT-SCC-24A; experiment: relative IC50 (midpoint of the fitted curve; maximal inhibition may be below 50%); higher = less potent; conditions: treatment time: 3 days
Method: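 HNSCC cell lines (500 cells/well, 384-well) were cultured on plastic, on top of (2D) or embedded (3D) in Matrigel or human leiomyoma matrix Myogel (500 ug/mL; Myogel 3D mixed with rat collagen I). Cells were treated for 3 days with 5 ten-fold concentrations of each drug, and viability was read by CellTiter-Glo. Viability was normalised to DMSO (0% inhibition) and 100 uM benzethonium chloride (100% inhibition) controls and fitted with the FIMM DSRT pipeline to give IC50 (nM), maximal % inhibition and the drug sensitivity score (DSS). Suffixes _1/_2/_3 on drug names are replicates.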

[19] = culture condition: embedded in Matrigel
[20] = culture condition: embedded in Myogel + collagen I
[21] = culture condition: on top of Matrigel
[22] = culture condition: on top of Myogel
[23] = culture condition: plastic 2D (no matrix)

`CO[C@H]1C[C@@H]2CC[C@@H](C)[C@@](O)(O2)C(=O)C(=O)N2CCCC[C@H]2C(=O)O[C@H]([C@H](C)C[C@@H]2CC[C@@H](OC(=O)C(C)(CO)CO)[C@H](OC)C2)CC(=O)[C@H](C)/C=C(\C)[C@@H](O)[C@@H](OC)C(=O)[C@H](C)C[C@H](C)/C=C/C=C/C=C/1C` [Temsirolimus] showed a drug sensitivity score [1, 19] of 14.9 ± 3.1 DSS, a drug sensitivity score [1, 20] of 15 ± 3.8 DSS and a drug sensitivity score [1, 21] of 10.2 ± 0.74 DSS. For the same compound, the drug sensitivity score [1, 22] was 14.7 ± 1.5 DSS, the drug sensitivity score [1, 23] was 12.1 ± 2.3 DSS and the drug sensitivity score [2, 19] was 4 ± 6 DSS. The drug sensitivity score [2, 21] was 0 DSS, the drug sensitivity score [2, 22] was 0 DSS and the drug sensitivity score [2, 23] was 0.933 ± 0.84 DSS. For the same compound, the drug sensitivity score [3, 19] was 9.4 ± 0.36 DSS, the drug sensitivity score [3, 20] was 4.53 ± 0.57 DSS and the drug sensitivity score [3, 21] was 9.17 ± 1.2 DSS. For the same compound, the drug sensitivity score [3, 22] was 11.4 ± 1.6 DSS, the drug sensitivity score [3, 23] was 10.4 ± 1.1 DSS and the drug sensitivity score [4, 19] was 5.07 ± 3.1 DSS. For the same compound, the drug sensitivity score [4, 20] was 11 ± 2.6 DSS, the drug sensitivity score [4, 21] was 4.3 ± 1.7 DSS and the drug sensitivity score [4, 22] was 6.37 ± 1.4 DSS. The drug sensitivity score [4, 23] was 4.77 ± 1.2 DSS, the drug sensitivity score [5, 19] was 5.33 ± 4 DSS and the drug sensitivity score [5, 20] was 9.3 ± 3.5 DSS. It also gave a drug sensitivity score [5, 21] of 9.13 ± 1 DSS, a drug sensitivity score [5, 22] of 8.97 ± 1.4 DSS and a drug sensitivity score [5, 23] of 7.9 ± 0.78 DSS. For the same compound, the drug sensitivity score [6, 19] was 9.13 ± 6.3 DSS, the drug sensitivity score [6, 20] was 8.27 ± 5.5 DSS and the drug sensitivity score [6, 21] was 7.23 ± 0.64 DSS. The drug sensitivity score [6, 22] was 7.1 ± 2.2 DSS, the drug sensitivity score [6, 23] was 4.53 ± 1.6 DSS and the drug sensitivity score [7, 19] was 4.67 ± 1.3 DSS. The drug sensitivity score [7, 20] was 5.23 ± 3.3 DSS, the drug sensitivity score [7, 21] was 5.87 ± 1.4 DSS and the drug sensitivity score [7, 22] was 6.4 ± 0.35 DSS. For the same compound, the drug sensitivity score [7, 23] was 4.5 ± 1.1 DSS, the drug sensitivity score [8, 19] was 6.03 ± 2 DSS and the drug sensitivity score [8, 20] was 6.8 ± 2.6 DSS. The drug sensitivity score [8, 21] was 4.17 ± 1.6 DSS, the drug sensitivity score [8, 22] was 4.53 ± 1.1 DSS and the drug sensitivity score [8, 23] was 3.6 ± 1 DSS. The drug sensitivity score [9, 19] was 15.4 ± 0.23 DSS, the drug sensitivity score [9, 20] was 14 ± 1.9 DSS and the drug sensitivity score [9, 21] was 13.3 ± 0.66 DSS. For the same compound, the drug sensitivity score [9, 22] was 13.7 ± 1.3 DSS, the drug sensitivity score [9, 23] was 13.1 ± 2.3 DSS and the drug sensitivity score [10, 19] was 4.9 ± 2.9 DSS. It also gave a drug sensitivity score [10, 20] of 4.77 ± 3.2 DSS, a drug sensitivity score [10, 21] of 8.37 ± 2.5 DSS and a drug sensitivity score [10, 23] of 8.8 ± 1.3 DSS. It also gave a drug sensitivity score [11, 19] of 6.03 ± 1.3 DSS, a drug sensitivity score [11, 20] of 5.33 ± 1.3 DSS and a drug sensitivity score [11, 21] of 5.93 ± 1 DSS. The drug sensitivity score [11, 22] was 3.33 ± 0.21 DSS, the drug sensitivity score [11, 23] was 7.6 ± 0.85 DSS and the “relative IC50” value [12, 21] was 1.13 nM. For the same compound, the “relative IC50” value [12, 22] was 0.543 nM, the “relative IC50” value [12, 23] was 0.857 nM and the “relative IC50” value [13] was over 98.9 nM. For the same compound, the “relative IC50” value [14, 21] was 0.711 nM, the “relative IC50” value [14, 23] was 0.691 nM and the “relative IC50” value [15, 20] was 0.997 nM. The “relative IC50” value [15, 21] was 0.383 nM, the “relative IC50” value [15, 23] was 1.06 nM and the “relative IC50” value [16, 19] was 5.49 nM. For the same compound, the “relative IC50” value [16, 22] was 2.26 nM, the “relative IC50” value [16, 23] was 7.63 nM and the “relative IC50” value [17, 19] was 0.458 nM. For the same compound, the “relative IC50” value [17, 20] was 0.654 nM, the “relative IC50” value [17, 21] was 0.765 nM and the “relative IC50” value [17, 22] was 0.33 nM. The “relative IC50” value [17, 23] was 0.458 nM, the “relative IC50” value [18, 21] was 2.16 nM and the “relative IC50” value [18, 22] was 2.23 nM. The “relative IC50” value [18, 23] was 1.66 nM.
